Measured values published in patent publication US8053197B2, “Methods for detecting and treating autoimmune disorders” (Oregon Health & Science University, priority 2004, dated 2011).

Assays:
[1] = tested on: Foxp3; test: E2 induction of Foxp3 in vitro in purified CD4+CD25− T cells (real-time RT-PCR); format: cell-based, mice
Method: FIG. 1 is a graph illustrating real-time RT-PCR analysis of Foxp3 expression in vitro in purified (>99%) CD4+CD25− T cells. E2 in combination with TCR stimulation by anti-CD3 antibody for 24 hours induced Foxp3 mRNA approximately 3-fold over levels in untreated cells or in anti-CD3 stimulated cells in the absence of E2. Foxp3 levels are shown relative to the housekeeping gene L32. Error bars are standard deviation of triplicate samples. One representative result of three is shown.
The capacity of E2 to induce Foxp3 expression in vitro in purified (>99%) CD4+CD25− T cells was tested. […]
For real-time RT-PCR analysis, total RNA was prepared using the Total RNeasy kit (Qiagen, Germantown, Md.) and cDNA was prepared using random hexamer primers (Invitrogen, Grand Island, N.Y.). Foxp3 message expression was quantified using the ABI 7000 Real-Time PCR System (Applied Biosystems, Foster City, Calif.). Amplification was performed in a total volume of 25 μl for 40 cycles and products were detected using SYBR Green I dye (Molecular Probes, Eugene, Oreg.). Samples were run in triplicate and relative expression level was determined by normalization to L32 with results presented as relative expression (RE) units. […] FoxP3 was detected with rabbit-anti-FoxP3 antiserum and standard chemiluminescence. […]

[2] = tested on: Foxp3; test: Foxp3 expression in CD4+ T cells of E2-treated, MOG-35-55 immunized mice at peak of EAE; format: in vivo, C57BL/6 mice; settings: peak of disease
Method: FIG. 2 is a graph illustrating real-time RT-PCR analysis of Foxp3. C57BL/6 and Esr^−/− mice were implanted with placebo or 2.5 mg E2 pellets and immunized 1 week later with 200 μg MOG-35-55 peptide in CFA with pertussis toxin on days 0 and +2. At the peak of clinical disease, mice were sacrificed and splenocytes sorted for CD4+ cells. cDNA was prepared and analyzed by real-time PCR to determine Foxp3 mRNA levels. Data are presented as Foxp3 relative to housekeeping gene L32. Error bars are standard deviation of triplicate samples.
Control lane is lysate of 293T cells transfected with Foxp3 cDNA. The CD25+ fraction (among CD4+) of each sample is noted above bars.
Female naïve or syngeneic pregnant (19 days) C57BL/6 mice were purchased from Jackson Laboratory (Bar Harbor, Me.). Estrogen receptor alpha knockout (Esrl^−/−) mice were purchased from Taconic (Germantown, N.Y.). Most experiments represent cells pooled from at least five mice per experimental condition.
For E2 therapy, a 3 mm pellet containing 2.5 mg or 15 mg (as indicated) 17β-estradiol (Innovative Research of America, Sarasota, Fla.) was implanted s.c. (dorsally) 7 days prior to immunization (EAE) or 14 days prior to analysis of naïve mice. These pellets are designed to release their contents at a constant rate over 60 days. Control animals were implanted with pellets containing saline. Serum levels of E2 were monitored by RIA. […]
For real-time RT-PCR analysis, total RNA was prepared using the Total RNeasy kit (Qiagen, Germantown, Md.) and cDNA was prepared using random hexamer primers (Invitrogen, Grand Island, N.Y.). Foxp3 message expression was quantified using the ABI 7000 Real-Time PCR System (Applied Biosystems, Foster City, Calif.). Amplification was performed in a total volume of 25 μl for 40 cycles and products were detected using SYBR Green I dye (Molecular Probes, Eugene, Oreg.). Samples were run in triplicate and relative expression level was determined by normalization to L32 with results presented as relative expression (RE) units. […]

## C[C@]12CC[C@@H]3c4ccc(O)cc4CC[C@H]3[C@@H]1CC[C@@H]2O [E2, 17β-estradiol]
[1]
  fraction of CD25+ cells over TCR stimulation alone: increased
[1]; E2 in combination with anti-CD3 antibody for 24 hours, relative to L32
  Foxp3 mRNA induction over levels in untreated cells: approximately 3 fold
[2]; Esr1−/− mice lacking estrogen receptor-α, MOG-35-55 immunized
  Foxp3 mRNA levels in CD4+ T cells increased: not
[2]; western blot and flow cytometry
  FoxP3 protein expression and CD25+ number in E2-treated mice, Esr1−/− versus wild-type: substantially lower
[2]; wild-type C57BL/6 mice, MOG-35-55 immunized, versus placebo
  Foxp3 mRNA levels in CD4+ T cells: significantly increased
